Tests used:
Format in all cases: functional, cell-based
M14 = assay: Growth inhibition of human M14 cells incubated for 48 hrs by sulforhodamine B assay; conditions: M14, 48 h
HL-60(TB) = assay: Growth inhibition of human HL-60(TB) cells incubated for 48 hrs by sulforhodamine B assay; conditions: HL-60, 48 h
RPMI-8226 = assay: Growth inhibition of human RPMI8226 cells incubated for 48 hrs by sulforhodamine B assay; conditions: RPMI-8226, 48 h
PC-3 = assay: Growth inhibition of human PC3 cells incubated for 48 hrs by sulforhodamine B assay; conditions: PC-3, 48 h
MDA-MB-231 = assay: Growth inhibition of human MDA-MB-231 cells incubated for 48 hrs by sulforhodamine B assay; conditions: MDA-MB-231, 48 h
T47D = assay: Growth inhibition of human T47D cells incubated for 48 hrs by sulforhodamine B assay
SF-295 = assay: Growth inhibition of human SF295 cells incubated for 48 hrs by sulforhodamine B assay; conditions: SF-295, 48 h
SK-MEL-5 = assay: Growth inhibition of human SK-MEL-5 cells incubated for 48 hrs by sulforhodamine B assay; conditions: SK-MEL-5, 48 h
IGROV-1 = assay: Growth inhibition of human IGROV1 cells incubated for 48 hrs by sulforhodamine B assay; conditions: IGROV-1, 48 h, read-out: TGI
CCRF-CEM = assay: Growth inhibition of human CCRF-CEM cells incubated for 48 hrs by sulforhodamine B assay
TK-10 = assay: Growth inhibition of human TK10 cells incubated for 48 hrs by sulforhodamine B assay; conditions: TK-10, 48 h
Malme-3M = assay: Growth inhibition of human MALME-3M cells incubated for 48 hrs by sulforhodamine B assay
HCT-116 = assay: Growth inhibition of human HCT116 cells incubated for 48 hrs by sulforhodamine B assay; conditions: HCT-116, 48 h
ACHN = assay: Growth inhibition of human ACHN cells incubated for 48 hrs by sulforhodamine B assay; conditions: read-out: TGI
NCI-H226 = assay: Growth inhibition of human NCI-H226 cells incubated for 48 hrs by sulforhodamine B assay; conditions: NCI-H226, 48 h
MOLT-4 = assay: Growth inhibition of human MOLT4 cells incubated for 48 hrs by sulforhodamine B assay; conditions: MOLT-4, 48 h, read-out: TGI
MDA-MB-435 = assay: Growth inhibition of human MDA-MB-435 cells incubated for 48 hrs by sulforhodamine B assay; conditions: MDA-MB-435, 48 h
HOP-92 = assay: Growth inhibition of human HOP92 cells incubated for 48 hrs by sulforhodamine B assay; conditions: HOP-92, 48 h
UACC-62 = assay: Growth inhibition of human UACC62 cells incubated for 48 hrs by sulforhodamine B assay; conditions: UACC-62, 48 h
KM12 = assay: Growth inhibition of human KM12 cells incubated for 48 hrs by sulforhodamine B assay; conditions: KM12, 48 h
HOP-62 = assay: Growth inhibition of human HOP62 cells incubated for 48 hrs by sulforhodamine B assay; conditions: HOP-62, 48 h
HT-29 = assay: Growth inhibition of human HT-29 cells incubated for 48 hrs by sulforhodamine B assay; conditions: HT-29, 48 h
COLO 205 = assay: Growth inhibition of human COLO205 cells incubated for 48 hrs by sulforhodamine B assay; conditions: COLO 205, 48 h
MDA-MB-468 = assay: Growth inhibition of human MDA-MB-468 cells incubated for 48 hrs by sulforhodamine B assay; conditions: MDA-MB-468, 48 h
UACC-257 = assay: Growth inhibition of human UACC257 cells incubated for 48 hrs by sulforhodamine B assay; conditions: UACC-257, 48 h
NCI/ADR-RES = assay: Growth inhibition of human NCI/ADR-RES cells incubated for 48 hrs by sulforhodamine B assay; conditions: read-out: TGI
NCI-H23 = assay: Growth inhibition of human NCI-H23 cells incubated for 48 hrs by sulforhodamine B assay; conditions: NCI-H23, 48 h
MCF7 = assay: Growth inhibition of human MCF7 cells incubated for 48 hrs by sulforhodamine B assay; conditions: MCF7, 48 h, read-out: TGI
NCI-H522 = assay: Growth inhibition of human NCI-H522 cells incubated for 48 hrs by sulforhodamine B assay; conditions: NCI-H522, 48 h
SK-MEL-2 = assay: Growth inhibition of human SK-MEL-2 cells incubated for 48 hrs by sulforhodamine B assay; conditions: SK-MEL-2, 48 h
SF-539 = assay: Growth inhibition of human SF539 cells incubated for 48 hrs by sulforhodamine B assay; conditions: SF-539, 48 h

CNC(=O)c1cc(Oc2ccc(NC(=O)Nc3ccc(Cl)c(C(F)(F)F)c3)cc2)ccn1 [SORAFENIB]
1260 nM: IC50 (MDA-MB-231)
7940 nM: TGI (NCI/ADR-RES) | TGI (MCF7)
1580 nM: IC50 (HL-60(TB)) | IC50 (RPMI-8226) | IC50 (T47D) | IC50 (SF-295) | IC50 (SK-MEL-5) | IC50 (HCT-116) | IC50 (MDA-MB-435) | IC50 (HOP-92) | IC50 (UACC-62) | IC50 (KM12) | IC50 (SF-539)
100000 nM: TGI (HL-60(TB); read-out: TGI) | TGI (MOLT-4)
3980 nM: IC50 (TK-10)
5010 nM: TGI (HOP-92; read-out: TGI) | TGI (UACC-257; read-out: TGI) | TGI (NCI-H23; read-out: TGI)
2000 nM: IC50 (M14) | IC50 (PC-3) | IC50 (CCRF-CEM) | IC50 (Malme-3M) | IC50 (NCI-H226) | IC50 (HOP-62) | IC50 (HT-29) | IC50 (COLO 205) | IC50 (MDA-MB-468) | IC50 (UACC-257) | IC50 (NCI-H23) | IC50 (NCI-H522) | IC50 (SK-MEL-2)
10000 nM: TGI (IGROV-1) | TGI (TK-10; read-out: TGI) | TGI (ACHN)

Reference: ChEMBL document CHEMBL4308841, “Synthesis, in vitro antiproliferative activity, and kinase inhibitory effects of pyrazole-containing diarylureas and diarylamides” (Eur J Med Chem, 2018)
